For series [1], the system named is eDHFR-YFP. The series can be described thus: Degradation of YFP in HEK293T-DYL cells, flow cytometry. Type of series: cell-based, Escherichia coli. The following applies: 72 and 96 h, varying doses. The text has this: The left panel represents the mean YFP fluorescence and the right panel represents the same data in percent of maximum YFP fluorescence normalized to HEK293T-DYL treated with DMSO.
For orientation: Flow cytometry measures light scatter and fluorescence of single cells or particles in a stream.

The test system of series [2] is eDHFR-YFP. Description: Degradation of eDHFR-YFP in HEK293T eDHFR-YFP+ cells, Western blot with anti-YFP antibody. Format: cell-based, Escherichia coli. To be noted: 100 nM, 24 h. The protocol: HEK293T eDHFR-YFP (HEK293T^eDHFR-YFP+) and OVCAR8 eDHFR-luc (OVCAR8^eDHFR-luc+) cells are prepared in clear (Falcon) 6-well plates (5×10^5 cells/well) and cultured in complete media. Compound 7c is solubilized in 100% DMSO to 10 mM. 10 mM 7c is serially diluted in sterile water accordingly and each dose administered to cells in fresh media at equal volume, such that the final concentration of DMSO in cell media is <1%. Once incubation with drug is completed, media is removed by vacuum, cells are washed with phosphate-buffered saline (PBS), trypsonized at 37° C., quenched with media, and centrifuged (Thermo Scientific Sorvall Legend X1R) at 1000 RPM for 5 minutes. Media and cell debris are removed by vacuum.
Once cells are isolated by centrifugation (Thermo Scientific Sorvall Legend X1R), they are solubilized in radioimmunoprecipitation assay (RIPA) lysis buffer with protease inhibitor. Cell lysate is incubated on ice for 30 minutes, sonicated, then centrifuged (Thermo Scientific Sorvall Legend Micro 21R) at 14,800 RPM for 10 minutes. Supernatant is removed and transferred to a new Eppendorf tube.
Using Thermo Scientific bicinchoninic acid (BCA) assay kit, total cell protein is quantified and compared to bovine serum albumin (BSA) standards ranging from 10 to 0.625 mg/mL. Cell lysate is aliquoted into a 96-well clear plate (Falcon) and mixed with reagent and shaken at 37° C. for 30 minutes. Samples are analyzed by plate reader (ThermoFisher Varioskan Plusplate), where absorbance is measured at […]. A calibration curve is developed, and samples are prepared to equal mass (mg) of total protein for gel electrophoresis.
Cell lysate is prepared by mixing with 4 uL of loading dye and PBS to give equal total protein and equal total volume across all samples. Each sample is loaded into a NuPage gel (4-12% Bis-tris) and developed in NuPage MES Running Buffer. Once complete, the gel is removed and prepared for protein transfer to membrane. […]

Another series concerns eDHFR-Luc. Description: Time course in OVCAR8 eDHFR-Luc cells, luminescence. Format: cell-based, Escherichia coli. The following applies: between 390 and 24 nM. Here is the method:
OVCAR8^eDHR-luc+ cells were plated in black wall/clear bottom (Falcon) 96-well plates (4×10^4 cells/well) in 200 uL of complete media and incubated with serially diluted compound 7c at −48, −24, −12, −8 and −4 h and analyzed together at 0 h (t=0). Luciferin is prepared to 1× with complete media and 50 uL of Luciferin solution is added to the cells which are then analyzed by plate reader (ThermoFisher Varioskan Plusplate).
After the addition of Luciferin/complete media solution, luminescence was measured at the same time (t=0) by plate reader. 90% degradation of eDHFR-luc measured in 12 h between 390 and 24 nM, and 95% degradation of eDHFR-luc measured in 24 h between 390 and 24 nM.

The subject of series [3] is FAP CAR-eDHFR direct fusion (DF). The series can be described thus: Washout kinetic assay of CAR expression in primary human FAP-eDHFR DF CAR T cells. The following applies: 100 nM, washout after 24 h. Type of series: cell-based. Here is the method:
Following a 24 hour incubation with TMP-POM 7c, the remaining cells were washed multiple times with […] (Corning) to remove the drug, returned to culture in a new 12-well plate, and then again sampled serially at different time points following the wash (3, 6, 24, 48, and 72 hours post-washout). All cells were stained for CAR and fixed in 4% following sampling, and were analyzed on a flow cytometer (LSR II, BD Biosciences).
Following 24-hour incubation with TMP-POM 7c, the cells were washed multiple times to remove the drug (red arrow), seeded on a new plate, and then again sampled serially following the drug washout. All cells were stained for CAR and fixed in 4% following sampling.

The next series relates to FAP-eDHFR DF CAR T cells. The series can be described thus: In vitro killing assay of FAP-eDHFR DF CAR T cells against I45 huFAP-Luc target cells.
Series [4] has as its system eDHFR-YFP. The series can be described thus: Washout experiment, eDHFR-YFP recovery in HEK293T eDHFR-YFP+ cells, Western blot. Format: cell-based, Escherichia coli. To be noted: 100 nM 7c, washed twice with PBS. The protocol:
HEK293T^eDHFR-YFP+ cells were seeded in a clear (Falcon) 12-well plate (3×10^5 cells/well) in complete media. The next day, cells were incubated with 100 nM 7c for 24 h in complete media. Media was removed by vacuum, cells were gently washed with 1 mL PBS 2×, then cell media was replenished. Next, cells were isolated +0 to 24 h after washing and prepared for Western blot analysis.
Protein degradation is reversed in as early as 4 h after drug removal from cell media.
Background: In western blotting, separated proteins are transferred to a membrane and probed.

As for `COc1cc(Cc2cnc(N)nc2N)cc(OC)c1OCCCC(=O)NCCOCCOCCNc1cccc2c1C(=O)N(C1CCC(=O)NC1=O)C2=O` (stereo not drawn) [Compound 7c, 4-(4-((2,4-diaminopyrimidin-5-yl)methyl)-2,6-dimethoxyphenoxy)-N-(2-(2-(2-((2-(2,6-dioxopiperidin-3-yl)-1,3-dioxoisoindolin-4-yl)amino)ethoxy)ethoxy)ethyl)butanamide], in the series on eDHFR-YFP [1], the “degradation of YFP” value is given as “degraded”. The “eDHFR-YFP degradation at 100 nM” value with eDHFR-YFP [2] is listed as “causes eDHFR-YFP to degrade”. The “degradation of eDHFR-luc” value in the series with eDHFR-Luc (12 h) is 90%. The “degradation of eDHFR-luc” value in the series on eDHFR-Luc (24 h) was found to be 95%. In series [3], the “time following washout for CAR expression to return to baseline” value was approximately 72 h and the “time following washout for CAR expression to start recovering” value is “around 24 hours”. The “cytotoxic function of FAP-eDHFR CAR T cells against FAP-expressing target cells” value in the series with FAP-eDHFR DF CAR T cells (CAR T cells pre-incubated 24 h with 100 nM compound, varying E:T ratios) is “inhibition of their cytotoxic function”. In addition, the “cytotoxic activity of FAP-eDHFR DF CAR T cells across concentrations” value in the series with FAP-eDHFR DF CAR T cells (pre-incubated overnight at different concentrations, 10:1 E:T) was “tunable in a dose-dependent manner”. Also, the “time after drug removal at which protein degradation is reversed” value with eDHFR-YFP [4] is recorded as not above 4 h.
